{
  "source": "patent US20090176817A1",
  "about": "“Method of Treatment of Diarrhea-Predominant Irritable Bowel Syndrome in a Subject” (priority 2005, published 2009)",
  "tested_on": "diarrhea-predominant IBS subjects",
  "experiment": "Study S241.3.006: weekly diary questions on adequate relief",
  "format": "in vivo, human",
  "conditions": "for Number of months a subject was a responder: One month (Abdominal pain/discomfort) / Number of months a subject was a responder: One month (Abnormal bowel habits) / Number of months a subject was a responder: One month (IBS symptoms) / Number of months a subject was a responder: Three months (Abdominal pain/discomfort) / Number of months a subject was a responder: Three months (Abnormal bowel habits) / Number of months a subject was a responder: Three months (IBS symptoms) / Number of months a subject was a responder: Two months (Abdominal pain/discomfort) / Number of months a subject was a responder: Two months (Abnormal bowel habits) / Number of months a subject was a responder: Two months (IBS symptoms) / Number of months a subject was a responder: Zero months (Abdominal pain/discomfort) / Number of months a subject was a responder: Zero months (Abnormal bowel habits) / Number of months a subject was a responder: Zero months (IBS symptoms): monthly LOCF",
  "experimental": "The study was conducted in 129 study centers in the United States. At total of 2080 subjects consented to participate, and 711 subjects were randomized. A total of 692 subjects were analyzed for efficacy and 701 subjects were analyzed for safety. Diagnosis and main criteria for inclusion were IBS subjects satisfying the Rome I criteria (1992); the diarrhea predominant sub-population of the Rome II criteria; and a minimum abdominal pain/discomfort, stool frequency and consistency determined during the run-in period. Subjects were treated with cilansetron 2 mg tablets given orally TID or matching placebo tablets given orally TID for 12 weeks double-blind treatment.\nThe primary efficacy parameter was the number of months that a subject was a responder for IBS symptoms (abdominal pain, abdominal discomfort, abnormal bowel habits) over the 12-week treatment period. A responder for a month (monthly responder) was defined as a subject who answered the weekly question with “yes” at least twice for that month.\nStudies S24 1.3.OO6, S24 1.3.0 1 1, and S24 1.3.009 used the following efficacy measurements: • The subjects answered the following three questions with “yes” or “no” using a phone diary at the end of each week: • a) During the last week, did you experience adequate relief of your IBS symptoms, such as abdominal pain, abdominal discomfort, abnormal bowel habits? • b) During the last week, did you experience adequate relief of your abdominal pain and/or discomfort? • c) During the last week, did you experience adequate relief of your abnormal bowel habits? • The subjects rated the following symptoms using the phone diary at the end of each day: • abdominal pain/discomfort (five-point scale); • stool consistency (seven-point Bristol Stool Scale); • stool frequency (number of bowel movements each day); • urgency (five-point scale); • straining (yes or no); • feeling of incomplete defecation (yes or no); • bloating or feeling of abdominal distension (five-point scale). • In Studies S241 A006 and S241.3.009, subjects completed the IBS-QOL Survey at Baseline (Day 1) and at the end of treatment. In Study S24 1.3.0 1 1, subjects completed the IBS-QOL Survey at Baseline (Day 1), at the end of the three-month treatment period, and at the end of rerandomized treatment.\nIn all three pivotal efficacy studies, the primary and main secondary efficacy parameters were based on the weekly diary questions on adequate relief and included the following: • 1. Number of months (one month equals four weeks) that a subject was a responder for the weekly diary questions on adequate relief. A responder for a month (monthly responder) was defined as a subject who answered the weekly question with “yes” at least twice for that month. For Studies S241.3.006 and S241.3.011, the primary efficacy parameter was the number of months that a subject was a responder for IBS symptoms during the 12-week treatment period. The two main secondary efficacy parameters were the number of months that a subject was a responder for abdominal pain/discomfort and abnormal bowel habits during the 12-week treatment period. For Study S241.3.009, the number of months that a subject was a responder for the weekly diary questions on adequate relief during Months 1 to 3 (the first 12 weeks) and Months 1 to 6 (24-week) was an additional key secondary efficacy parameter. • 2. Overall responder rate for the weekly diary questions on adequate relief. A responder was defined as a subject who answered the weekly question with “yes” for at least half of the answers available with a minimum of four weeks treatment duration. If a subject had less than four weeks treatment duration, the subject was considered a non-responder. The overall responder rate was the percentage of responders within a treatment group. For Study S241.3.009, the primary efficacy parameter was the overall responder rate for IBS symptoms during the 26-week treatment period. […]",
  "key": {"[1]": {"conditions": "Duration of IBS: >24 months to ≦48 months, 2 mg TID, observed case, ITT"}, "[2]": {"conditions": "Duration of IBS: >24 months to ≦48 months, three-month treatment period, ITT, 2 mg TID"}, "[3]": {"conditions": "Duration of IBS: >48 months to ≦120 months, 2 mg TID, observed case, ITT"}, "[4]": {"conditions": "Duration of IBS: >48 months to ≦120 months, three-month treatment period, ITT, 2 mg TID"}, "[5]": {"conditions": "Duration of IBS: >120 months, 2 mg TID, observed case, ITT"}, "[6]": {"conditions": "Duration of IBS: >120 months, three-month treatment period, ITT, 2 mg TID"}, "[7]": {"conditions": "Duration of IBS: ≦24 months, 2 mg TID, observed case, ITT"}},
  "data": [
    {"smiles": "Cc1nccn1C[C@H]1CCc2c(c3cccc4c3n2CCC4)C1=O", "note": "[Cilansetron, (R)-(−)-4,5,6,8,9,10-hexahydro-10-[(2-methyl-1H-imidazol-1-yl)methyl]-11H-pyrido-[3,2,1-jk]-carbazol-11-one]", "values": [
      {"measurement": "Overall responder rate, adequate relief of abnormal bowel habits", "setting": "Baseline severity of IBS: severe, three-month treatment period, observed case, ITT, 2 mg TID", "result": "90 (46) n (%)"},
      {"measurement": "Overall responder rate, abdominal pain/discomfort", "setting": "Caucasians", "result": 52, "unit": "%"},
      {"measurement": "Number of subjects who were responders during the three-month treatment period: Adequate relief of IBS symptoms", "setting": "[1]", "result": "20 (47) n (%)"},
      {"measurement": "Number of subjects who were responders during the three-month treatment period: Adequate relief of abdominal pain/discomfort", "setting": "[1]", "result": "22 (51) n (%)"},
      {"measurement": "Number of subjects who were responders during the three-month treatment period: Adequate relief of abnormal bowel habits", "setting": "[1]", "result": "20 (47) n (%)"},
      {"measurement": "Number of months a subject was a responder: One month (Abdominal pain/discomfort)", "setting": "[2]", "result": "8 (19) n (%)"},
      {"measurement": "Number of months a subject was a responder: One month (Abnormal bowel habits)", "setting": "[2]", "result": "10 (23) n (%)"},
      {"measurement": "Number of months a subject was a responder: One month (IBS symptoms)", "setting": "[2]", "result": "12 (28) n (%)"},
      {"measurement": "Number of months a subject was a responder: Three months (Abdominal pain/discomfort)", "setting": "[2]", "result": "15 (35) n (%)"},
      {"measurement": "Number of months a subject was a responder: Three months (Abnormal bowel habits)", "setting": "[2]", "result": "13 (30) n (%)"},
      {"measurement": "Number of months a subject was a responder: Three months (IBS symptoms)", "setting": "[2]", "result": "14 (33) n (%)"},
      {"measurement": "Number of months a subject was a responder: Two months (Abdominal pain/discomfort)", "setting": "[2]", "result": "6 (14) n (%)"},
      {"measurement": "Number of months a subject was a responder: Two months (Abnormal bowel habits)", "setting": "[2]", "result": "7 (16) n (%)"},
      {"measurement": "Number of months a subject was a responder: Two months (IBS symptoms)", "setting": "[2]", "result": "4 (9) n (%)"},
      {"measurement": "Number of months a subject was a responder: Zero months (Abdominal pain/discomfort)", "setting": "[2]", "result": "14 (33) n (%)"},
      {"measurement": "Number of months a subject was a responder: Zero months (Abnormal bowel habits)", "setting": "[2]", "result": "13 (30) n (%)"},
      {"measurement": "Number of months a subject was a responder: Zero months (IBS symptoms)", "setting": "[2]", "result": "13 (30) n (%)"},
      {"measurement": "Number of subjects who were responders during the three-month treatment period: Adequate relief of IBS symptoms", "setting": "[3]", "result": "54 (52) n (%)"},
      {"measurement": "Number of subjects who were responders during the three-month treatment period: Adequate relief of abdominal pain/discomfort", "setting": "[3]", "result": "58 (56) n (%)"},
      {"measurement": "Number of subjects who were responders during the three-month treatment period: Adequate relief of abnormal bowel habits", "setting": "[3]", "result": "54 (52) n (%)"},
      {"measurement": "Number of months a subject was a responder: One month (Abdominal pain/discomfort)", "setting": "[4]", "result": "12 (12) n (%)"},
      {"measurement": "Number of months a subject was a responder: One month (Abnormal bowel habits)", "setting": "[4]", "result": "12 (12) n (%)"},
      {"measurement": "Number of months a subject was a responder: One month (IBS symptoms)", "setting": "[4]", "result": "15 (14) n (%)"},
      {"measurement": "Number of months a subject was a responder: Three months (Abdominal pain/discomfort)", "setting": "[4]", "result": "40 (38) n (%)"},
      {"measurement": "Number of months a subject was a responder: Three months (Abnormal bowel habits)", "setting": "[4]", "result": "37 (36) n (%)"},
      {"measurement": "Number of months a subject was a responder: Three months (IBS symptoms)", "setting": "[4]", "result": "35 (34) n (%)"},
      {"measurement": "Number of months a subject was a responder: Two months (Abdominal pain/discomfort)", "setting": "[4]", "result": "18 (17) n (%)"},
      {"measurement": "Number of months a subject was a responder: Two months (Abnormal bowel habits)", "setting": "[4]", "result": "19 (18) n (%)"},
      {"measurement": "Number of months a subject was a responder: Two months (IBS symptoms)", "setting": "[4]", "result": "19 (18) n (%)"},
      {"measurement": "Number of months a subject was a responder: Zero months (Abdominal pain/discomfort)", "setting": "[4]", "result": "34 (33) n (%)"},
      {"measurement": "Number of months a subject was a responder: Zero months (Abnormal bowel habits)", "setting": "[4]", "result": "36 (35) n (%)"},
      {"measurement": "Number of months a subject was a responder: Zero months (IBS symptoms)", "setting": "[4]", "result": "35 (34) n (%)"},
      {"measurement": "Number of subjects who were responders during the three-month treatment period: Adequate relief of IBS symptoms", "setting": "[5]", "result": "69 (47) n (%)"},
      {"measurement": "Number of subjects who were responders during the three-month treatment period: Adequate relief of abdominal pain/discomfort", "setting": "[5]", "result": "72 (49) n (%)"},
      {"measurement": "Number of subjects who were responders during the three-month treatment period: Adequate relief of abnormal bowel habits", "setting": "[5]", "result": "73 (50) n (%)"},
      {"measurement": "Number of months a subject was a responder: One month (Abdominal pain/discomfort)", "setting": "[6]", "result": "15 (10) n (%)"},
      {"measurement": "Number of months a subject was a responder: One month (Abnormal bowel habits)", "setting": "[6]", "result": "14 (10) n (%)"},
      {"measurement": "Number of months a subject was a responder: One month (IBS symptoms)", "setting": "[6]", "result": "13 (9) n (%)"},
      {"measurement": "Number of months a subject was a responder: Three months (Abdominal pain/discomfort)", "setting": "[6]", "result": "59 (40) n (%)"},
      {"measurement": "Number of months a subject was a responder: Three months (Abnormal bowel habits)", "setting": "[6]", "result": "57 (39) n (%)"},
      {"measurement": "Number of months a subject was a responder: Three months (IBS symptoms)", "setting": "[6]", "result": "51 (35) n (%)"},
      {"measurement": "Number of months a subject was a responder: Two months (Abdominal pain/discomfort)", "setting": "[6]", "result": "19 (13) n (%)"},
      {"measurement": "Number of months a subject was a responder: Two months (Abnormal bowel habits)", "setting": "[6]", "result": "19 (13) n (%)"},
      {"measurement": "Number of months a subject was a responder: Two months (IBS symptoms)", "setting": "[6]", "result": "22 (15) n (%)"},
      {"measurement": "Number of months a subject was a responder: Zero months (Abdominal pain/discomfort)", "setting": "[6]", "result": "53 (36) n (%)"},
      {"measurement": "Number of months a subject was a responder: Zero months (Abnormal bowel habits)", "setting": "[6]", "result": "56 (38) n (%)"},
      {"measurement": "Number of months a subject was a responder: Zero months (IBS symptoms)", "setting": "[6]", "result": "60 (41) n (%)"},
      {"measurement": "Number of subjects who were responders during the three-month treatment period: Adequate relief of IBS symptoms", "setting": "[7]", "result": "25 (49) n (%)"},
      {"measurement": "Number of subjects who were responders during the three-month treatment period: Adequate relief of abdominal pain/discomfort", "setting": "[7]", "result": "27 (53) n (%)"}
    ]}
  ]
}
